Values after ≈ are worked out from the molar mass of the structure shown.
Key:
[1] = tested on: Mycobacterium tuberculosis; assay: Antitubercular activity against Mycobacterium tuberculosis H37Rv isolate SRI after 5 days by resazurin-based microplate assay; type: functional; details: 120 h
[2] = tested on: Mycobacterium tuberculosis; assay: Antitubercular activity against Mycobacterium tuberculosis H37Rv incubated for 10 days in anaerobic condition followed by 48 hrs incubation in aerobic condition by LORA assay; type: functional
Vero = assay: Cytotoxicity against african green monkey Vero cells after 72 hrs by CellTiterGlo assay; details: chlorocebus sabaeus, vero, 72 h
[3] = Selectivity index, ratio of CC50 for Vero cells to MIC90 for Mycobacterium tuberculosis H37Rv isolate SRI; type: functional
[4] = tested on: Mycobacterium tuberculosis; assay: Antitubercular activity against Mycobacterium tuberculosis H37Rv isolate ITR after 7 days by luminescence spectrometry; type: functional; details: 168 h

Structure (SMILES) | MIC90 [1] [µg/mL] | MIC90 [2] [µg/mL] | CC50 (Vero) [µg/mL] | Selectivity Index [3] | MIC90 [4] [µg/mL]
CCN(CC)c1n[n+]([O-])c2ccccc2[n+]1[O-] | 0.31 (≈ 1.32 µM) | 1.3 (≈ 5.55 µM) | 12 (≈ 51.2 µM) | 40 | 0.46 (≈ 1.96 µM)
[O-][n+]1nc(NC2CCC2)[n+]([O-])c2ccccc21 | 1.2 (≈ 5.17 µM) | 0.84 (≈ 3.62 µM) | 8.9 (≈ 38.3 µM) | 7.1 | 0.94 (≈ 4.05 µM)
CC(=O)Nc1cc(/C=C\c2ccc([N+](=O)[O-])o2)ns1 | 0.98 (≈ 3.51 µM) | 3.7 (≈ 13.2 µM) | > 50 | >50 | 3.8 (≈ 13.6 µM)
CS(=O)(=O)N1CCN(c2n[n+]([O-])c3cc4c(cc3[n+]2[O-])CCC4)CC1 | 5 (≈ 13.7 µM) | 15 (≈ 41 µM) | > 50 | >10 | 13 (≈ 35.6 µM)
CC(C)CCC(C)Nc1n[n+]([O-])c2ccccc2[n+]1[O-] (stereo unspecified) | 1.2 (≈ 4.34 µM) | 0.38 (≈ 1.38 µM) | 4.1 (≈ 14.8 µM) | 3.3 | 0.52 (≈ 1.88 µM)
Cc1cccc2c1[n+]([O-])c(NC1CCC1)n[n+]2[O-] | 0.31 (≈ 1.26 µM) | 0.43 (≈ 1.75 µM) | 22 (≈ 89.3 µM) | 70 | 0.47 (≈ 1.91 µM)
O=C(Cn1ccnc1[N+](=O)[O-])NCCO [ETANIDAZOLE] | > 10 | 26 (≈ 121 µM) | > 16 |  | > 32
Cc1cccc2c1[n+]([O-])c(NC1CCCC1)n[n+]2[O-] | 0.31 (≈ 1.19 µM) | 0.27 (≈ 1.04 µM) | 3.7 (≈ 14.2 µM) | 12 | 0.43 (≈ 1.65 µM)
[O-][n+]1nc(NC2CCCC2)[n+]([O-])c2ccc(F)cc21 | 0.31 (≈ 1.17 µM) | 0.34 (≈ 1.29 µM) | 2.3 (≈ 8.7 µM) | 7.3 | 0.33 (≈ 1.25 µM)
[O-][n+]1nc(NC2CC2)[n+]([O-])c2ccc(Cl)cc21 | 0.62 (≈ 2.45 µM) | 0.22 (≈ 0.871 µM) | 1.3 (≈ 5.15 µM) | 2.2 | 0.21 (≈ 0.831 µM)
[O-][n+]1nc(NC2CCC2)[n+]([O-])c2ccc(Cl)cc21 | 0.15 (≈ 0.562 µM) | < 0.12 | 1.6 (≈ 6 µM) | 10 | 
[O-][n+]1nc(NC2CC2)[n+]([O-])c2ccc(F)cc21 | 0.31 (≈ 1.31 µM) | 3.5 (≈ 14.8 µM) | 1.3 (≈ 5.5 µM) | 2.2 | 0.93 (≈ 3.94 µM)
Cc1ncc([N+](=O)[O-])n1CCO [METRONIDAZOLE] | > 10 | 11 (≈ 64.3 µM) | > 16 |  | > 32
C[C@@H](Nc1n[n+]([O-])c2ccccc2[n+]1[O-])C1CCCCC1 | 1.2 (≈ 4.16 µM) | 0.36 (≈ 1.25 µM) | 8.9 (≈ 30.9 µM) | 7.1 | 0.92 (≈ 3.19 µM)
COc1ccc2c(c1)[n+]([O-])nc(NC1CCC1)[n+]2[O-] | 0.62 (≈ 2.36 µM) | 0.9 (≈ 3.43 µM) | 9.8 (≈ 37.4 µM) | 16 | 0.96 (≈ 3.66 µM)
[O-][n+]1nc(NC2CCCCC2)[n+]([O-])c2ccc(Cl)cc21 | 0.62 (≈ 2.1 µM) | 0.63 (≈ 2.14 µM) | 2.6 (≈ 8.82 µM) | 4.2 | 0.94 (≈ 3.19 µM)
Nc1n[n+]([O-])c2ccccc2[n+]1[O-] [TIRAPAZAMINE] | 5 (≈ 28.1 µM) | 7.3 (≈ 41 µM) | 8 (≈ 44.9 µM) | 1.6 | 3.7 (≈ 20.8 µM)
COc1ccc2c(c1)[n+]([O-])nc(N[C@@H]1C[C@H]3CC[C@@H]1C3)[n+]2[O-] | 0.62 (≈ 2.05 µM) | 1.6 (≈ 5.29 µM) | > 50 | >80 | 0.97 (≈ 3.21 µM)
[O-][n+]1nc(N[C@@H]2C[C@H]3CC[C@@H]2C3)[n+]([O-])c2ccc(Cl)cc21 | 0.15 (≈ 0.489 µM) | 0.23 (≈ 0.75 µM) | 1.1 (≈ 3.59 µM) | 7.3 | 0.22 (≈ 0.717 µM)
[O-][n+]1nc(N[C@@H]2C[C@H]3CC[C@@H]2C3)[n+]([O-])c2ccc(Br)cc21 | 0.31 (≈ 0.883 µM) | 0.41 (≈ 1.17 µM) | 0.8 (≈ 2.28 µM) | 2.6 | 0.36 (≈ 1.03 µM)
CCNc1n[n+]([O-])c2cc(Br)ccc2[n+]1[O-] | 0.62 (≈ 2.17 µM) | 0.46 (≈ 1.61 µM) | 4.2 (≈ 14.7 µM) | 6.7 | 0.49 (≈ 1.72 µM)
[O-][n+]1nc(N2CCOCC2)[n+]([O-])c2ccccc21 | 2.5 (≈ 10.1 µM) | 19 (≈ 76.5 µM) | 5.4 (≈ 21.8 µM) | 2.2 | 3.7 (≈ 14.9 µM)
CCCC(C)Nc1n[n+]([O-])c2ccccc2[n+]1[O-] (stereo unspecified) | 5 (≈ 20.1 µM) | 0.99 (≈ 3.99 µM) | 26 (≈ 105 µM) | 5.3 | 1.9 (≈ 7.65 µM)
[O-][n+]1nc(NC2CC2)[n+]([O-])c2ccccc21 | 2.5 (≈ 11.5 µM) | 1.8 (≈ 8.25 µM) | 21 (≈ 96.2 µM) | 8.3 | 

Structure (SMILES) | MIC90 [1] [µg/mL] | MIC90 [2] [µg/mL] | CC50 (Vero) [µg/mL] | Selectivity Index [3] | MIC90 [4] [µg/mL]
[O-][n+]1nc(N[C@@H]2C[C@H]3CC[C@@H]2C3)[n+]([O-])c2ccc(F)cc21 | 0.31 (≈ 1.07 µM) | 0.21 (≈ 0.723 µM) | < 2.5 | <4 | < 0.12
CCNc1n[n+]([O-])c2cc(Cl)ccc2[n+]1[O-] | 1.2 (≈ 4.99 µM) | 0.41 (≈ 1.7 µM) | 2.6 (≈ 10.8 µM) | 2.1 | < 0.12
[O-][n+]1nc(NC2CCCC2)[n+]([O-])c2ccc(Br)cc21 | 0.15 (≈ 0.461 µM) | 0.46 (≈ 1.41 µM) | 18 (≈ 55.4 µM) | 110 | 0.35 (≈ 1.08 µM)
[O-][n+]1nc(N[C@@H]2C[C@H]3CC[C@@H]2C3)[n+]([O-])c2cc3c(cc21)CCC3 | 1.2 (≈ 3.84 µM) | 0.36 (≈ 1.15 µM) | > 50 | >41 | 0.93 (≈ 2.98 µM)
NNC(=O)c1ccncc1 [ISONIAZID] | 0.06 (≈ 0.438 µM) | > 20 | > 50 | >830 | 0.091 (≈ 0.664 µM)
[O-][n+]1nc(NC2CCC2)[n+]([O-])c2ccc(F)cc21 | 0.31 (≈ 1.24 µM) | 0.88 (≈ 3.52 µM) | 1.6 (≈ 6.39 µM) | 10 | 0.4 (≈ 1.6 µM)
COc1cc2c(cc1C)[n+]([O-])nc(N[C@@H]1C[C@H]3CC[C@@H]1C3)[n+]2[O-] | 5 (≈ 15.8 µM) | 3.5 (≈ 11.1 µM) | > 50 | >10 | 5.6 (≈ 17.7 µM)
[O-][n+]1nc(NC2CCCCCC2)[n+]([O-])c2ccccc21 | 2.5 (≈ 9.11 µM) | 0.5 (≈ 1.82 µM) | 7.9 (≈ 28.8 µM) | 3.2 | 1.6 (≈ 5.83 µM)
CCNc1n[n+]([O-])c2cc(F)ccc2[n+]1[O-] | 0.62 (≈ 2.77 µM) | 0.75 (≈ 3.35 µM) | 4.6 (≈ 20.5 µM) | 7.3 | 0.35 (≈ 1.56 µM)
O=S1(=O)CCN(c2n[n+]([O-])c3cc4c(cc3[n+]2[O-])CCC4)CC1 | 5 (≈ 14.9 µM) | 30 (≈ 89.2 µM) | 17 (≈ 50.5 µM) | 3.4 | 15 (≈ 44.6 µM)
O=C1CN(/N=C/c2ccc([N+](=O)[O-])o2)C(=O)N1 [NITROFURANTOIN] | 16 (≈ 67.2 µM) | 32 (≈ 134 µM) | 23 (≈ 96.6 µM) | 1.1 | 28 (≈ 118 µM)
COC(=O)/C=C/n1ccnc1[N+](=O)[O-] | 10 (≈ 50.7 µM) | 3.3 (≈ 16.7 µM) | 16 (≈ 81.2 µM) | 1.6 | 29 (≈ 147 µM)
CO[C@H]1/C=C/O[C@@]2(C)Oc3c(C)c(O)c4c(O)c(c(/C=N/N5CCN(C)CC5)c(O)c4c3C2=O)NC(=O)/C(C)=C\C=C\[C@H](C)[C@H](O)[C@@H](C)[C@@H](O)[C@@H](C)[C@H](OC(C)=O)[C@@H]1C [RIFAMPIN] | 0.003 (≈ 0.00365 µM) | 2 (≈ 2.43 µM) | > 50 | >15000 | 0.041 (≈ 0.0498 µM)
[O-][n+]1nc(N[C@@H]2C[C@H]3CC[C@@H]2C3)[n+]([O-])c2ccccc21 | 0.62 (≈ 2.28 µM) | 0.42 (≈ 1.54 µM) | 3.4 (≈ 12.5 µM) | 5.5 | 0.6 (≈ 2.2 µM)
[O-][n+]1nc(NC2CCCCC2)[n+]([O-])c2ccc(F)cc21 | 0.62 (≈ 2.23 µM) | 0.47 (≈ 1.69 µM) | < 2.5 | <4 | 0.68 (≈ 2.44 µM)
CSc1c(C)[n+]([O-])c2ccccc2[n+]1[O-] | 10 (≈ 45 µM) | 9.4 (≈ 42.3 µM) | > 16 | >1.6 | 28 (≈ 126 µM)
[O-][n+]1nc(NC2CCCC2)[n+]([O-])c2ccccc21 | 2.5 (≈ 10.2 µM) | 0.68 (≈ 2.76 µM) | 10 (≈ 40.6 µM) | 4.2 | 3.6 (≈ 14.6 µM)
[O-][n+]1nc(NC2CCCCC2)[n+]([O-])c2ccccc21 | 2.5 (≈ 9.6 µM) | 0.75 (≈ 2.88 µM) | 8.9 (≈ 34.2 µM) | 3.6 | 3.8 (≈ 14.6 µM)
Cc1c(N2CCCC2)[n+]([O-])c2ccccc2[n+]1[O-] | > 10 | > 32 | > 16 |  | 
CC(C)(C)C1CCC(Nc2n[n+]([O-])c3ccccc3[n+]2[O-])CC1 (stereo unspecified) | 0.62 (≈ 1.96 µM) | < 0.12 | 2.3 (≈ 7.27 µM) | 3.7 | 0.22 (≈ 0.695 µM)
[O-][n+]1nc(NC2CCC2)[n+]([O-])c2ccc(Br)cc21 | 0.15 (≈ 0.482 µM) | 0.41 (≈ 1.32 µM) | 3.8 (≈ 12.2 µM) | 24 | 0.46 (≈ 1.48 µM)
CCNc1n[n+]([O-])c2cc(OC)ccc2[n+]1[O-] | 2.5 (≈ 10.6 µM) | 16 (≈ 67.7 µM) |  | 6.3 | 15 (≈ 63.5 µM)
COCCNC(=O)c1ccc2c(c1)[n+]([O-])c(O)c(C#N)[n+]2[O-] | > 20 | > 32 | > 16 |  | 
